Where “and” joins values, the source holds several entries; their conditions need not be identical. Equal values may be shown once.
System: ApoE knockout (EKO) mice
Test: standard pharmacological test procedure for atherosclerosis in ApoE knockout (EKO) mice: plasma lipids and aortic arch lesions
Assay type: in vivo
Settings: for Aortic Atherosclerosis (% lesion involvement as assessed by lpipd staining): aortic arch, Oil Red O; for Aortic Atherosclerosis (% lesion involvement as assessed by lpipd staining) / HDL-C / LDL-C / Total Cholesterol / Triglycerides / VLDL-C: Western Diet, mean ± S.E.; for HDL-C / LDL-C / Total Cholesterol / Triglycerides / VLDL-C: plasma
Description: The ability of the rapamycins of this invention to treat or inhibit cardiovascular disease or peripheral vascular disease was confirmed in a standard pharmacological test procedure using ApoE knockout (EKO) mice, which are a well accepted animal model of human atherosclerosis. In this test procedure, rapamycin was used a representative example of a rapamycin of this invention. The procedure used, and results obtained are briefly summarized below.
Male EKO mice, 4-6 weeks of age, were housed in shoe-box cages and were allowed ad lib food and water. The animals were randomized by weight into 5 groups (N=12-15 mice per group) and were fed Purina Rodent Chow for the first week of the study. Also during this period as well as the remaining 12 weeks of the study, the animals were dosed every 2 days with 0, 1, 2, 4 or 8 mg/kg rapamycin s.c. using 2% Tween-80, 1% carboxymethyl cellulose as the vehicle and Control. The animal diet was switched to a casein-based Western Diet for week 2 to week 13 of the study. At the end of the study period, the animals were euthanized, plasma samples obtained, and the hearts perfused first with saline, then with 10% formalin. Total cholesterol and triglycerides were determined using enzymatic methods with commercially-available kits from Boehringer Mannheim and Wako Biochemicals, respectively, and the Boehringer Mannheim Hitachii 911 Analyzer (Boehringer Mannheim Diagnostic Laboratory Systems, Indianapolis, Ind.). Separation and quantification of plasma lipoproteins were performed using FPLC size fractionation. Briefly, […] of serum was filtered and injected into two Superose 6 columns (Amersham Pharmacia Biotech, UK, Ltd) connected in series and eluted at a constant flow rate with 1 mM sodium EDTA and 0.15 M NaCl. Areas of each curve representing VLDL, LDL and HDL were integrated using Millennium software (Waters Technologies Corporation), and each lipoprotein fraction was quantified by multiplying the Total Cholesterol value by the relative percent area of each respective peak. The aortas were carefully isolated and remained in the formalin fixative for 48-72 hours before handling. Atherosclerotic lesions were identified by Oil Red O staining, a well accepted procedure for identifying accumulation of neutral lipids such as cholesterols and triglycerides. The vessels were destained, and then imaged using a Nikon SMU800 microscope fitted with a Sony 3CCD video camera system in concert with IMAQ Configuration Utility (National Instrument) as the image capturing software. The lesions were quantified along the aortic arch using a custom threshold utility software package designed by Robert Coll (Coleman Technologies). Automated lesion assessment was performed on the vessels using the threshold function of the program, specifically on the region contained within the aortic arch from the proximal edge of the Right Common Carotid artery to the distal edge of the Left Subclavian artery. Aortic atherosclerosis data were expressed as percent lesion (lipid) involvement strictly within this defined luminal area. Statistical significance between the Control and treated groups was determined using the Dunnett's Test at 1% significance level (p<0.01).

CO[C@H]1C[C@@H]2CC[C@@H](C)[C@@](O)(O2)C(=O)C(=O)N2CCCC[C@H]2C(=O)O[C@H]([C@H](C)C[C@@H]2CC[C@@H](O)[C@H](OC)C2)CC(=O)[C@H](C)/C=C(\C)[C@@H](O)[C@@H](OC)C(=O)[C@H](C)C[C@H](C)/C=C/C=C/C=C/1C [rapamycin]
area of aorta containing fat (1, 2, 4, or 8-mg/kg qod for 12 weeks): 12-16%
Aortic Atherosclerosis (% lesion involvement as assessed by lpipd staining) (1 mg/kg s.c. every 2 days, 1 mg/kg): 21.6% and 21.6 ± 3.1 %
Aortic Atherosclerosis (% lesion involvement as assessed by lpipd staining) (2 mg/kg s.c. every 2 days, 2 mg/kg): 14.9 ± 3.1 %
Aortic Atherosclerosis (% lesion involvement as assessed by lpipd staining) (4 mg/kg s.c. every 2 days, 4 mg/kg): 16% and 16.4 ± 2.8 %
Aortic Atherosclerosis (% lesion involvement as assessed by lpipd staining) (8 mg/kg s.c. every 2 days, 8 mg/kg): 12% and 12.03 ± 2.3 %
effect on VLDL-cholesterol (compared with control EKO mice): not significantly affecting
effect on circulating plasma HDL-cholesterol (compared with control EKO mice): significantly (p<0.01) increased
effect on circulating plasma LDL-cholesterol (compared with control EKO mice): significantly (p<0.01) increased
effect on total cholesterol (compared with control EKO mice): not significantly affecting
effect on triglycerides (compared with control EKO mice): not significantly affecting
HDL-C (1 mg/kg s.c. every 2 days): 23 ± 6 mg/dL
LDL-C (1 mg/kg s.c. every 2 days): 508 ± 18 mg/dL
Total Cholesterol (1 mg/kg s.c. every 2 days): 1434 ± 35 mg/dL
Triglycerides (1 mg/kg s.c. every 2 days): 132 ± 16 mg/dL
VLDL-C (1 mg/kg s.c. every 2 days): 903 ± 34 mg/dL
HDL-C (2 mg/kg s.c. every 2 days): 31 ± 5 mg/dL
LDL-C (2 mg/kg s.c. every 2 days): 517 ± 18 mg/dL
Total Cholesterol (2 mg/kg s.c. every 2 days): 1311 ± 80 mg/dL
Triglycerides (2 mg/kg s.c. every 2 days): 143 ± 20 mg/dL
VLDL-C (2 mg/kg s.c. every 2 days): 763 ± 64 mg/dL
HDL-C (4 mg/kg s.c. every 2 days): 38 ± 5 mg/dL
LDL-C (4 mg/kg s.c. every 2 days): 494 ± 10 mg/dL
Total Cholesterol (4 mg/kg s.c. every 2 days): 1281 ± 58 mg/dL
Triglycerides (4 mg/kg s.c. every 2 days): 136 ± 12 mg/dL
VLDL-C (4 mg/kg s.c. every 2 days): 749 ± 58 mg/dL
HDL-C (8 mg/kg s.c. every 2 days): 49 ± 3 mg/dL
LDL-C (8 mg/kg s.c. every 2 days): 475 ± 21 mg/dL
Total Cholesterol (8 mg/kg s.c. every 2 days): 1167 ± 75 mg/dL
Triglycerides (8 mg/kg s.c. every 2 days): 134 ± 9 mg/dL
VLDL-C (8 mg/kg s.c. every 2 days): 644 ± 58 mg/dL
circulating total cholesterol (rapamycin treated animals, 1, 2, 4, or 8-mg/kg qod for 12 weeks): 1300 to 1500 mg/dL
reduction in aortic atherosclerosis (rapamycin treated vs Control EKO mice): three-fold reduction
